# According to patent publication EP4644396A1 (Visionpharma (Nantong) Co., Ltd, priority 2022, dated 2024):
# Target: T1, human TLR8 (Homo sapiens, UniProt Q9NR97)
# T1 construct: expressed in transfected cells
# T1 sequence (Q9NR97 27-1041): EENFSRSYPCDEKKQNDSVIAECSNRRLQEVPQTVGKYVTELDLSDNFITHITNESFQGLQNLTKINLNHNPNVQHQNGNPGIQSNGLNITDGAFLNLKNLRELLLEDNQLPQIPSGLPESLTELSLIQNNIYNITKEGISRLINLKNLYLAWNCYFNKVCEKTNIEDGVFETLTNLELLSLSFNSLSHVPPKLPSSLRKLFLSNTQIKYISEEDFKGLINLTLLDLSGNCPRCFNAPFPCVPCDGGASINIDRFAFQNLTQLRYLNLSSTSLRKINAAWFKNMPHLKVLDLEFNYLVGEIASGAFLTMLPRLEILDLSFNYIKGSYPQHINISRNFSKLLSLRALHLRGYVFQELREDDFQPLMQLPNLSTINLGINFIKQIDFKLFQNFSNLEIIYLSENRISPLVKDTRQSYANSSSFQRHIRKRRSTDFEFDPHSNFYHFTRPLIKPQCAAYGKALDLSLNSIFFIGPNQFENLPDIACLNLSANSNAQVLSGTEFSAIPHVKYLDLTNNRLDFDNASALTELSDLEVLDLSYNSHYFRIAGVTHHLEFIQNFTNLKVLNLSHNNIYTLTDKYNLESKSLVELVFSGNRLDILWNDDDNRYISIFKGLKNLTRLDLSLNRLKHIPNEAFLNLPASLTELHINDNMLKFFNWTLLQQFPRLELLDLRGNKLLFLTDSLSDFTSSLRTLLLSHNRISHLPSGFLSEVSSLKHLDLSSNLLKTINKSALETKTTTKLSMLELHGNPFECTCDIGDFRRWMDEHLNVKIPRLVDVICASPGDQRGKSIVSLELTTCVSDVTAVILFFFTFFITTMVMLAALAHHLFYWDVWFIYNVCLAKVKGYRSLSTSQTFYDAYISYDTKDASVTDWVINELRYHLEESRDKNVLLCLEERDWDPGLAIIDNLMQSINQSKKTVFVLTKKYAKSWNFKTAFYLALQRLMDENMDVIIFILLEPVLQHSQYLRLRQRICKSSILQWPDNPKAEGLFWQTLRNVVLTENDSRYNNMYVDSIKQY
# Assay: HEK-Blue hTLR8 SEAP reporter gene inhibition assay
# Format: cell-based
# Conditions: HEK-Blue hTLR8 IC50 (µM)
# Procedure: HEK-Blue cells with stable expression of human TLR7 or TLR8 were used in the evaluation of inhibitory activity of compounds in the present invention against TLR7 or TLR8, by using its ability to induce the SEAP reporting gene under the control of the fusion of IFN-β minimum promoters into five NF-κB and ap-1 binding sites, as follows: hTLR7 HEK-Blue cells (Invivogen, 80, 000 cells per well) or hTLR8 HEK-Blue cells (60, 000 cells per well) were added to a 96-well cell culture plate. A solution of the testing compounds were added to each well, with the final concentration of tested compounds in the medium ranged from 0.001 to 36 µM and the culture was incubated for 15 minutes. M5049 was used as positive controls in the testing.
# Then a TLR7 ligand (Gardiquimod, purchased from MedChemExpress, with final concentration of ligand in cell culture medium kept at 10 µM) or a TLR8 ligand (purchased from MedChemExpress with final concentration in cell culture media at 10 µM) and the culture was incubated for 20 hours. According to the manufacturer's instructions, a HEK-Blue reagent Quanti-blue (Invivogen) was used to detect the SEAP levels in cell cultures. The half […] concentration or IC50 was calculated by using GraphPad Prism. […] Table 1: Activities of examples in this invention to hTLR7/8 in HEK-Blue Cells
row,Compound,IC50
1,C[C@@H]1CN(c2ccc(C#N)n3ncc(F)c23)Cc2c3c(nn21)CN(Cc1ccn[nH]1)CC3 [Example I-29],< 0.1 µM

# Same assay, conditions: hTLR8 HEK-Blue cells, TLR8 ligand 10 µM, 20 hours, SEAP by Quanti-blue; class symbols; read-out: HEK-Blue hTLR8 IC50
row,Compound,IC50
1,"C[C@@H]1CN(c2ccc(C#N)n3ncc(F)c23)Cc2c3c(nn21)CC(C)(C)NC3 [Example I-78, (R)-3-Fluoro-4-(3,3,7-trimethyl-1,3,4,7,8,10-hexahydropyrido[4',3':3,4]pyrazolo [1,5-a]pyrazin-9(2H)-yl)pyrazolo[1,5-a]pyridine-7-carbonitrile]",< 0.1 µM
2,"COC[C@@H]1CCCN1CC(=O)N1Cc2nn3c(c2C[C@@H]1C)CN(c1ccc(C#N)n2ncc(F)c12)C[C@H]3C [Example I-109, 3-Fluoro-4-((4R,9S)-8-(2-((S)-2-(methoxymethyl)pyrrolidin-1-yl)acetyl)-4,9-dimethyl-3,4,7,8,9,10-hexahydropyrido[3',4':3,4]pyrazolo[1,5-a]pyrazin-2(1H)-yl)pyrazolo[1,5-a]pyridine-7-carbonitrile]",< 0.1 µM
3,"C[C@@H]1CN(c2ccc(C#N)n3ncc(F)c23)Cc2c3c(nn21)CC(CN1CCOCC1)NC3 (stereo partly drawn) [Example I-47, 3-Fluoro-4-((7R)-7-methyl-3-(morpholinomethyl)-1,3,4,7,8,10-hexahydropyrido [4',3':3,4]pyrazolo[1,5-a]pyrazin-9(2H)-yl)pyrazolo[1,5-a]pyridine-7-carbonitrile]",> 0.1 µM
4,"C[C@@H]1CN(c2ccc(C#N)n3ncc(F)c23)Cc2c3c(nn21)CC(N)CC3 (stereo partly drawn) [Example I-20, 4-((4R)-8-amino-4-methyl-3,4,7,8,9,10-hexahydropyrazino[1,2-b]indazol-2(1H)-yl)-3-fluoropyrazolo[1,5-a]pyridine-7-carbonitrile]",< 0.1 µM
5,"C[C@@H]1CN(c2ccc(C#N)n3ncc(F)c23)Cc2c3c(nn21)CNCC3O (stereo partly drawn) [Example I-38, 3-Fluoro-4-((4R)-10-hydroxy-4-methyl-3,4,7,8,9,10-hexahydropyrido[3',4':3,4]pyrazolo[1,5-a]pyrazin-2(1H)-yl)pyrazolo[1,5-a]pyridine-7-carbonitrile]",> 0.1 µM
6,"C[C@@H]1CN(c2ccc(C#N)n3ncc(F)c23)Cc2c3c(nn21)CC(N)CCC3 (stereo partly drawn) [Example I-214, 4-((4R)-8-amino-4-methyl-1,3,4,7,8,9,10,11-octahydro-2H-cyclohepta[3,4]pyrazolo[1,5-a]pyrazin-2-yl)-3-fluoropyrazolo[1,5-a]pyridine-7-carbonitrile]",< 0.1 µM
7,"C[C@@H]1CN(c2ccc(C#N)n3ncc(F)c23)Cc2c3c(nn21)CC(CO)NC3 (stereo partly drawn) [Example I-36, 3-Fluoro-4-((7R)-3-(hydroxymethyl)-7-methyl-1,3,4,7,8,10-hexahydropyrido[4',3':3,4]pyrazolo[1,5-a]pyrazin-9(2H)-yl)pyrazolo[1,5-a]pyridine-7-carbonitrile]",< 0.1 µM
8,"C[C@@H]1CN(c2ccc(C#N)n3ncc(F)c23)Cc2c3c(nn21)CCNC3CO (stereo partly drawn) [Example I-46, 3-fluoro-4-((7R)-1-(hydroxymethyl)-7-methyl-1,3,4,7,8,10-hexahydropyrido[4',3':3,4]pyrazolo[1,5-a]pyrazin-9(2H)-yl)pyrazolo[1,5-a]pyridine-7-carbonitrile]",< 0.1 µM
9,"4-((4R,9S)-4,9-dimethyl-8-((2R,6R)-6-methylmorpholine-2-carbonyl)-3,4,7,8,9,10-hexahydropyrido[3',4':3,4]pyrazolo[1,5-a]pyrazin-2(1H)-yl)-3-fluoropyrazolo[1,5-a]pyridine-7-carbonitrile [Example I-122]",< 0.1 µM
10,"C[C@@H]1CN(c2ccc(C#N)n3ncc(F)c23)Cc2c3c(nn21)CC(N1CCOCC1)CC3 (stereo partly drawn) [Example I-31, 3-Fluoro-4-((4R)-4-methyl-8-morpholino-3,4,7,8,9,10-hexahydropyrazino[1,2-b]indazol-2(1H)-yl)pyrazolo[1,5-a]pyridine-7-carbonitrile]",< 0.1 µM
11,"CC(C)CC1NCCc2c1nn1c2CN(c2ccc(C#N)n3ncc(F)c23)C[C@H]1C (stereo partly drawn) [Example I-69, 3-Fluoro-4-((4R)-7-isobutyl-4-methyl-3,4,7,8,9,10-hexahydropyrido[3',4':3,4]pyrazolo [1,5-a]pyrazin-2(1H)-yl)pyrazolo[1,5-a]pyridine-7-carbonitrile]",< 0.1 µM
12,"CC(C)C1NCCc2c1nn1c2CN(c2ccc(C#N)n3ncc(F)c23)C[C@H]1C (stereo partly drawn) [Example I-70, 3-Fluoro-4-((4R)-7-isopropyl-4-methyl-3,4,7,8,9,10-hexahydropyrido[3',4':3,4]pyrazolo[1,5-a]pyrazin-2(1H)-yl)pyrazolo[1,5-a]pyridine-7-carbonitrile]",< 0.1 µM
13,"C[C@@H]1CN(c2ccc(C#N)n3ncc(F)c23)Cc2c3c(nn21)CC(C)(N)CC3 (stereo partly drawn) [Example I-71, 4-((4R)-8-amino-4,8-dimethyl-3,4,7,8,9,10-hexahydropyrazino[1,2-b]indazol-2(1H)-yl)-3-fluoropyrazolo[1,5-a]pyridine-7-carbonitrile]",< 0.1 µM
14,"C[C@@H]1CN(c2ccc(C#N)n3ncc(F)c23)Cc2c3c(nn21)C(CO)CNC3 (stereo partly drawn) [Example I-35, 3-Fluoro-4-((7R)-4-(hydroxymethyl)-7-methyl-1,3,4,7,8,10-hexahydropyrido[4',3':3,4]pyrazolo[1,5-a]pyrazin-9(2H)-yl)pyrazolo[1,5-a]pyridine-7-carbonitrile]",< 0.1 µM
15,"4-((4R,9S)-8-(L-prolyl)-4,9-dimethyl-3,4,7,8,9,10-hexahydropyrido[3',4':3,4]pyrazolo [1,5-a]pyrazin-2(1H)-yl)-3-fluoropyrazolo[1,5-a]pyridine-7-carbonitrile [Example I-114]",< 0.1 µM
16,"C[C@@H]1CN(c2ccc(C#N)n3ncc(F)c23)Cc2c3c(nn21)CC(N)C(O)C3 (stereo partly drawn) [Example I-37, 4-((4R)-8-amino-9-hydroxy-4-methyl-3,4,7,8,9,10-hexahydropyrazino [1,2-b]indazol-2(1H)-yl)-3-fluoropyrazolo[1,5-a]pyridine-7-carbonitrile]",< 0.1 µM
17,"CCC1CN(c2ccc(C#N)n3ncc(F)c23)Cc2c3c(nn21)CNCC3 (stereo not drawn) [Example I-17, 4-(4-Ethyl-3,4,7,8,9,10-hexahydropyrido[3',4':3,4]pyrazolo[1,5-a]pyrazin-2(1H)-yl)-3-fluoropyrazolo[1,5-a]pyridine-7-carbonitrile]",> 0.1 µM
18,"C[C@@H]1CN(c2ccc(C#N)n3ncc(F)c23)Cc2c3c(nn21)CN(CCO)CC3 [Example I-19, (R)-3-Fluoro-4-(8-(2-hydroxyethyl)-4-methyl-3,4,7,8,9,10-hexahydropyrido[3',4':3,4]pyrazolo[1,5-a]pyrazin-2(1H)-yl)pyrazolo[1,5-a]pyridine-7-carbonitrile]",> 0.1 µM
19,"C[C@@H]1CN(c2ccc(C#N)n3ncc(F)c23)Cc2c3c(nn21)CN(C1CCNCC1O)C(=O)C3 (stereo partly drawn) [Example I-32, 3-Fluoro-4-((4R)-8-(3-hydroxypiperidin-4-yl)-4-methyl-9-oxo-3,4,7,8,9,10-hexahydropyrido[3',4':3,4]pyrazolo[1,5-a]pyrazin-2(1H)-yl)pyrazolo[1,5-a]pyridine-7-carbonitrile]",< 0.1 µM
20,"C[C@@H]1CN(c2ccc(C#N)n3ncc(F)c23)Cc2c3c(nn21)CN(CC(=O)N1C[C@H](C)N[C@@H](C)C1)[C@@H](C)C3 [Example I-145, 4-((4R,9S)-8-(2-((3S,5S)-3,5-dimethylpiperazin-1-yl)-2-oxoethyl)-4,9-dimethyl-3,4,7,8,9,10-hexahydropyrido[3',4':3,4]pyrazolo[1,5-a]pyrazin-2(1H)-yl)-3-fluoropyrazolo[1,5-a]pyridine-7-carbonitrile]",< 0.1 µM
